Test results as given in patent publication US9505781B2, “Compositions comprising thienopyrimidine and thienopyridine compounds and methods of use thereof” (The Regents of the University of Michigan, priority 2013, dated 2016).

Molecular target: T1, menin-MLL interaction (Homo sapiens, UniProt O00255)
T1 sequence (O00255 1-610): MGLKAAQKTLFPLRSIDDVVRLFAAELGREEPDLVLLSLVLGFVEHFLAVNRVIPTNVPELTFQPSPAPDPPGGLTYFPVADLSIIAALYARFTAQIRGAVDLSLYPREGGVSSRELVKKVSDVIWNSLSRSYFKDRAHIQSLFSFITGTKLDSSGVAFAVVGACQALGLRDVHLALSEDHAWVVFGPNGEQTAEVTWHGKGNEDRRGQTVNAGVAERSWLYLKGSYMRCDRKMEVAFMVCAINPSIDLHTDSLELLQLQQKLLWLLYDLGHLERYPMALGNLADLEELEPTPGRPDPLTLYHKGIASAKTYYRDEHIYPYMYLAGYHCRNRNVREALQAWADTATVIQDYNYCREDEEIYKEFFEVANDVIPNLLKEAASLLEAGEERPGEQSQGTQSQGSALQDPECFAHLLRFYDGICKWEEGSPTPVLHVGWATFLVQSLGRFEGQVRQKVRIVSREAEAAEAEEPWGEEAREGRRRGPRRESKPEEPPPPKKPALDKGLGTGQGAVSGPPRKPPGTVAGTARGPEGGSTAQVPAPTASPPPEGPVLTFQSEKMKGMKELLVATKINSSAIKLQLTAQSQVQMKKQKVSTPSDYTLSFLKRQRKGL
Test: biochemical
Text: Compounds that inhibit the interaction decrease the fluorescence anisotropy which is being used as a read-out for compound screening and for IC50 determination.

Row | Compound | IC50
1 | OCCNN(c1ncnc2sc(CC(F)(F)F)cc12)C1CCN(Cc2ccccc2)CC1 [Compound 125] | 0.1 to 0.5 µM
2 | Oc1ccccc1CN1CCC(Nc2ncnc3sc(CC(F)(F)F)cc23)CC1 [Compound 114] | 0.1 to 0.5 µM
3 | FC(F)(F)Cc1cc2c(NC3CCN(Cc4ccc(N5CCCCC5)cc4)CC3)ncnc2s1 [Compound 145] | 0.5 to 2 µM
4 | O[C@@H]1CN(Cc2ccccc2)CC[C@H]1Nc1ncnc2sc(CC(F)(F)F)cc12 (relative stereo) [Compound 165] | 0.1 to 0.5 µM
5 | COCCOCCOC(CO)Cn1c(C#N)cc2cc(CN3CCC(Nc4ncnc5sc(CC(F)(F)F)cc45)CC3)ccc21 (stereo not shown) [Compound 319] | < 0.1 µM
6 | Cc1nnc(Cn2c(C#N)cc3c(C)c(CN4CCC(Nc5ncnc6sc(CC(F)(F)F)cc56)CC4)ccc32)s1 [Compound 322] | < 0.1 µM
7 | FC(F)(F)Cc1cc2c(NCC3CCN(Cc4ccccc4Cl)CC3)ncnc2s1 [Compound 260] | 0.1 to 0.5 µM
8 | FC(F)(F)Cc1cc2c(NC3CCN(Cc4cccs4)CC3)ncnc2s1 [Compound 132] | 0.1 to 0.5 µM
9 | CCCc1cc2c(N3CCN(c4nnc(C(F)(F)F)s4)CC3)ncnc2s1 [Compound 33] | 0.5 to 2 µM
10 | Cc1cc(Cn2c(C#N)cc3c(C)c(CN4CCC(Nc5ncnc6sc(CC(F)(F)F)cc56)CC4)ccc32)[nH]n1 [Compound 365] | < 0.1 µM
11 | OCc1cnc2sc(CC(F)(F)F)cc2c1NC1CCN(Cc2ccccc2)CC1 [Compound 280] | < 0.1 µM
12 | O=C(Cc1ccc(NS(=O)(=O)N2CCOCC2)cc1)N1CCN(c2ncnc3sc(CC(F)(F)F)cc23)CC1 [Compound 53] | < 0.1 µM
13 | CN1CCN(S(=O)(=O)Nc2ccc(CC(=O)N3CCN(c4ncnc5sc(CC(F)(F)F)cc45)CC3)cc2)CC1 [Compound 55] | < 0.1 µM
14 | N#Cc1cc2cc(CN3CCC(Nc4c(C#N)cnc5sc(CC(F)(F)F)cc45)CC3)ccc2[nH]1 [Compound 279] | < 0.1 µM
15 | N#Cc1cc2c(Cl)c(CN3CCC(Nc4ncnc5sc(CC(F)(F)F)cc45)CC3)ccc2n1Cc1cn[nH]c1 [Compound 381] | < 0.1 µM
16 | N#Cc1cc2cc(CN3CCC(Nc4ncnc5sc(CC(F)(F)F)cc45)CC3)ccc2n1N [Compound 230] | 0.1 to 0.5 µM
17 | Oc1ccc(CN2CCC(Nc3ncnc4sc(CC(F)(F)F)cc34)CC2)cc1 [Compound 105, 4-((4-((6-(2,2,2-trifluoroethyl)thieno[2,3-d]pyrimidin-4-yl)amino)piperidin-1-yl)methyl)phenol] | < 0.1 µM
18 | FC(F)(F)Cc1cc2c(N3CCN(c4nnc(CC5CCCCC5)s4)CC3)ncnc2s1 [Compound 39] | 0.5 to 2 µM

Row | Compound | IC50
19 | COc1ccccc1CC(=O)N1CCN(c2ncnc3sc(CC(F)(F)F)cc23)CC1 [Compound 94] | 0.5 to 2 µM
20 | Cc1c(CN2CCC(Nc3ncnc4sc(CC(F)(F)F)cc34)CC2)ccc2c1cc(C#N)n2CCN1CCSCC1 [Compound 360] | < 0.1 µM
21 | CN(c1ccc(CC(=O)N2CCN(C3=NC=NC4SC(CC(F)(F)F)=CC34)CC2)c(Cl)c1)S(C)(=O)=O (stereo not shown) [Compound 65] | < 0.1 µM
22 | N#Cc1cc2cc(CN3CCC(Nc4c(COCCCC5CCCC5)cnc5sc(CC(F)(F)F)cc45)CC3)ccc2[nH]1 [Compound 419] | 0.5 to 2 µM
23 | N#Cc1cc2cc(CN3CCC(Nc4ncnc5sc(CC(F)(F)F)cc45)CC3)ccc2n1CC(O)(CO)CN1CCOCC1 (stereo not shown) [Compound 333] | < 0.1 µM
24 | N#Cc1cc2cc(CN3CC[C@@H](Nc4ncnc5sc(CC(F)(F)F)cc45)[C@@H](CO)C3)ccc2[nH]1 [Compound 164] | < 0.1 µM
25 | O=C(Cc1ccc(Cl)cc1)N1CCN(c2ncnc3sc(CC(F)(F)F)cc23)CC1 [Compound 71] | 0.1 to 0.5 µM
26 | CCCc1cc2c(N(C)C3CCN(Cc4ccccc4)CC3)ncnc2s1 [Compound 150] | 0.5 to 2 µM
27 | COCCCc1cc2c(N3CCN(C4=NCC(C)(C)S4)CC3)ncnc2s1 [Compound 25] | 0.5 to 2 µM
28 | N#Cc1cc2cc(CN3CCC(Nc4ncnc5sc(CC(F)(F)F)cc45)CC3)ccc2n1CCN1CCOCC1 [Compound 192] | < 0.1 µM
29 | Cc1c(CN2CCC(Nc3ncnc4sc(CC(F)(F)F)cc34)CC2)ccc2c1cc(C#N)n2CC1CNC(=O)C1 (stereo not shown) [Compound 430] | < 0.1 µM
30 | Cc1c(C#N)[nH]c2ccc(CN3CCC(Nc4ncnc5sc(CC(F)(F)F)cc45)CC3)cc12 [Compound 417] | 0.1 to 0.5 µM
31 | CCc1c(CN2CCC(Nc3ncnc4sc(CC(F)(F)F)cc34)CC2)ccc2[nH]c(C#N)cc12 [Compound 295] | < 0.1 µM
32 | FC(F)(F)CCc1nnc(N2CCN(c3ncnc4sc(CC(F)(F)F)cc34)CC2)s1 [Compound 18] | 0.5 to 2 µM
33 | N#Cc1cc2cc(CN3CCC(Nc4ncnc5sc(CC(F)(F)F)cc45)CC3)ccc2n1Cc1nn[nH]n1 [Compound 240] | 0.1 to 0.5 µM
34 | COc1cc2c(cc1CN1CCC(Nc3ncnc4sc(CC(F)(F)F)cc34)CC1)cc(C#N)n2Cc1cn[nH]c1 [Compound 390] | < 0.1 µM
35 | N#Cc1cc2c(Cl)c(CN3CCC(Nc4ncnc5sc(CC(F)(F)F)cc45)CC3)ccc2n1CC(N)=O [Compound 225] | < 0.1 µM

Results, then the compound that gave them:

Row | IC50 | Compound
36 | 0.5 to 2 µM | FC(F)(F)c1nnc(N2CCN(c3ncnc4sc(C5CC5)cc34)CC2)s1 [Compound 28]
37 | 0.1 to 0.5 µM | CC1(C)CN=C(C2C[C@@H]3C[C@H]2CN3c2ncnc3sc(CC(F)(F)F)cc23)S1 (mixture of isomers) [Compound 14]
38 | 0.5 to 2 µM | CCCc1cc2c(NC3CCN(Cc4ccccc4)CC3)ncnc2s1 [Compound 149]
39 | < 0.1 µM | CCOc1cc2[nH]c(C#N)cc2cc1CN1CCC(Nc2ncnc3sc(CC(F)(F)F)cc23)CC1 [Compound 215]
40 | 0.1 to 0.5 µM | N#Cc1cc2cc(CN3CCC(Nc4ncnc5sc(CC(F)(F)F)cc45)CC3)c(F)cc2[nH]1 [Compound 234]
41 | < 0.1 µM | Cc1nc[nH]c1Cn1c(C#N)cc2c(C)c(CN3CCC(Nc4ncnc5sc(CC(F)(F)F)cc45)CC3)ccc21 [Compound 350]
42 | < 0.1 µM | CCN(c1ccc(CC(=O)N2CCN(C3=NC=NC4SC(CC(F)(F)F)=CC34)CC2)c(Cl)c1)S(C)(=O)=O (stereo not shown) [Compound 66]
43 | 0.5 to 2 µM | Cc1ccccc1CN1CCC(Nc2ncnc3sc(CC(C)(F)F)cc23)CC1 [Compound 155]
44 | < 0.1 µM | Cc1c(CN2CCC(Nc3ncnc4sc(CC(F)(F)F)cc34)CC2)ccc2c1cc(C#N)n2CCN1CCN(C(=O)CCC2CCCCC2)CC1 [Compound 339]
45 | < 0.1 µM | O=C(Cc1ccc(NS(=O)(=O)N2CCCCC2)cc1)N1CCN(c2ncnc3sc(CC(F)(F)F)cc23)CC1 [Compound 52]
46 | 0.5 to 2 µM | O=c1[nH]c2ccc(CN3CCC(Nc4ncnc5sc(CC(F)(F)F)cc45)CC3)cc2[nH]1 [Compound 250]
47 | 0.1 to 0.5 µM | O=C(Cc1ccccc1)N1CCN(c2ncnc3sc(CC(F)(F)F)cc23)CC1 [Compound 67]
48 | < 0.1 µM | N#Cc1cc2cc(CN3CCC(Nc4ncnc5sc(CC(F)(F)F)cc45)CC3)ccc2n1Cc1nc[nH]n1 [Compound 204]
49 | < 0.1 µM | Cc1c(CN2CCC(Nc3ncnc4sc(CC(F)(F)F)cc34)CC2)ccc2c1cc(C#N)n2Cc1cc(Cc2ccncc2)[nH]n1 [Compound 345]
50 | 0.1 to 0.5 µM | FC(F)(F)Cc1cc2c(N[C@H]3CCN(Cc4ccccc4)C[C@@H]3OCc3ccccc3)ccnc2s1 [Compound 174]
51 | 0.5 to 2 µM | NCc1ccc(CN2CCC(CNc3ncnc4sc(CC(F)(F)F)cc34)CC2)cc1 [Compound 265]

Row | IC50 | Compound
52 | 0.5 to 2 µM | CC1(C)CN=C(N2CCN(c3ncnc4sc(CCC5CC5)cc34)CC2)S1 [Compound 36]
53 | 0.5 to 2 µM | FC(F)(F)Cc1cc2c(NCC3CCN(Cc4ccc(C(F)(F)F)cc4)CC3)ncnc2s1 [Compound 276]
54 | 0.1 to 0.5 µM | FC(F)(F)Cc1cc2c(N(NCc3ccccc3)C3CCN(Cc4ccccc4)CC3)ncnc2s1 [Compound 124]
55 | < 0.1 µM | CS(=O)(=O)Nc1ccc(CC(=O)N2CCN(c3ncnc4sc(CC(F)(F)F)cc34)CC2)cc1 [Compound 45]
56 | < 0.1 µM | N#Cc1cc2c(Cl)c(CN3CCC(Nc4ncnc5sc(CC(F)(F)F)cc45)CC3)ccc2[nH]1 [Compound 224]
57 | 0.1 to 0.5 µM | O=C(Cc1ccc(Cc2ccoc2)cc1)N1CCN(c2ncnc3sc(CC(F)(F)F)cc23)CC1 [Compound 76]
58 | 0.5 to 2 µM | OC(c1cc2c(N3CCN(c4nnc(C(F)(F)F)s4)CC3)ncnc2s1)C(F)(F)F (stereo not shown) [Compound 23]
59 | 0.5 to 2 µM | O=C(CCc1ccccc1)N1CCN(c2ncnc3sc(CC(F)(F)F)cc23)CC1 [Compound 88]
60 | < 0.1 µM | Cc1c(CN2CCC(Nc3ncnc4sc(CC(F)(F)F)cc34)CC2)ccc2c1cc(C#N)n2CC(CO)OC(C)C (stereo not shown) [Compound 302]
61 | 0.1 to 0.5 µM | N#Cc1cc2cc(CN3CCC(Nc4ncnc5sc(CC(F)(F)F)cc45)CC3)ccc2n1Cc1cc(OCCCC2CC2)n[nH]1 [Compound 414]
62 | < 0.1 µM | CC(=O)NCCS(=O)(=O)Nc1ccc(CC(=O)N2CCN(c3ncnc4sc(CC(F)(F)F)cc34)CC2)cc1 [Compound 57]
63 | < 0.1 µM | Cc1c(CN2CCC(Nc3ncnc4sc(CC(F)(F)F)cc34)CC2)ccc2c1cc(C#N)n2CCc1cccnc1 [Compound 328]
64 | 0.1 to 0.5 µM | N[C@H]1CN(Cc2ccccc2)CC[C@@H]1Nc1ncnc2sc(CC(F)(F)F)cc12 [Compound 166]
65 | 0.1 to 0.5 µM | N#CCc1ccc(CC(=O)N2CCN(c3ncnc4sc(CC(F)(F)F)cc34)CC2)cc1 [Compound 77]
66 | 0.5 to 2 µM | N#Cc1cc2cc(CN3CCC(Nc4c(COCc5cc[nH]n5)cnc5sc(CC(F)(F)F)cc45)CC3)ccc2[nH]1 [Compound 420]
67 | < 0.1 µM | N#Cc1cc2c(CN)c(CN3CCC(Nc4ncnc5sc(CC(F)(F)F)cc45)CC3)ccc2[nH]1 [Compound 294]
